Source: patent US9169315B2, “Heparin cofactor II fragments with anti-inflammatory and anti-coagulant activity” (XIMMUNE AB, priority 2009, dated 2015)
No end group written: not given here.

What was measured:
[1] = test system: Escherichia coli, Pseudomonas aeruginosa, Bacillus subtilis, Staphylococcus aureus, Candida albicans, Candida parapsilosis; experiment: Radial diffusion assay (RDA); type: cell-based; conditions: peptide at 100 μM; compared with LL-37
Experimental: Essentially as described earlier, bacteria were grown to mid-logarithmic phase in 10 ml of full-strength (3% w/v) trypticase soy broth (TSB) (Becton-Dickinson). The microorganisms were then washed once with 10 mM Tris, pH 7.4. Subsequently, 4×10^6 cfu were added to 15 ml of the underlay agarose gel, consisting of 0.03% (w/v) TSB, 1% (w/v) low electroendosmosis type (EEO) agarose (Sigma-Aldrich) and 0.02% (v/v) Tween 20 (Sigma-Aldrich). The underlay was poured into a Ø 144 mm petri dish. After agarose solidification, 4 mm-diameter wells were punched and 6 μl peptide solution of required concentration added to each well. Plates were incubated at 37° C. for 3 h to allow peptide diffusion. The underlay gel was then covered with 15 ml of molten overlay (6% TSB and 1% Low-EEO agarose in distilled H2O). Antimicrobial activity of a peptide was visualized as a zone of clearing around each well after 18-24 h of incubation at 37° C.
Essentially as described earlier (Lehrer, Rosenman et al. 1991; Andersson, Rydengård et al. 2004), bacteria were grown to mid-logarithmic phase in 10 ml of full-strength (3% w/v) trypticase soy broth. (TSB) (Becton-Dickinson). The microorganisms were then washed once with 10 mM Tris, pH 7.4. Subsequently, 4×10^6 cfu were added to 15 ml of the underlay agarose gel, consisting of 0.03% (w/v) TSB, 1% (w/v) low electroendosmosis type (EEO) agarose (Sigma-Aldrich) and 0.02% (v/v) Tween 20 (Sigma-Aldrich). The underlay was poured into a Ø 144 mm petri dish. After agarose solidification, 4 mm-diameter wells were punched and 6 μl peptide solution of required concentration added to each well. Plates were incubated at 37° C. for 3 h to allow peptide diffusion. The underlay gel was then covered with 15 ml of molten overlay (6% TSB and 1% Low-EEO agarose in distilled H2O). Antimicrobial activity of a peptide was visualized as a zone of clearing around each well after 18-24 h of incubation at 37° C. […]

E. coli 0111:B4 LPS = experiment: LPS model in vivo (E. coli LPS-induced shock); parameters: species or system C57BL/6 mice; conditions: for Platelet counts / IFN-γ in blood / IL-6 in blood / MCP-1 in blood / TNF-α in blood / IL-10 in blood: 0.5 mg peptide; for Platelet counts: 8 and 20 h after LPS; for IFN-γ in blood / IL-6 in blood / MCP-1 in blood / TNF-α in blood: 8 and 20 h after LPS injection; for IL-10 in blood: 8 or 20 h after LPS injection; for Survival: 18 mg/kg E. coli LPS i.p., peptide i.p., followed 7 days; for Weight: followed for 7 days
Experimental: Septic shock in C57BL6 mice was induced by intraperitoneal injection of 18 mg/kg E. coli LPS. Sixty minutes later KYE28 and KYE21 (0.2 and 0.5 mg; in PBS) or buffer only was administered. […] (C) Peptide treatment affects the number of platelets in the LPS-induced shock model. (D) In separate experiments mice were injected with LPS followed by administration of 0.5 mg of KYE28 or KYE21, or buffer. Animals were sacrificed at 8 h, 20 h, or after 7 days and the number of platelets in blood counted using the VetScanSystem. […] Cytokines were measured in blood from animals sacrificed at 8 or 20 h after LPS injection. […] C57BL6 were i.p. injected with […] LPS followed by 0.5 mg of KYE28 After 20 h mice were sacrificed and cytokine levels in blood were determined. (KYE28; n=10). All data are representative of two independent experiment.
RAW 264.7 macrophages were stimulated with 10 ng/ml E. coli or P. aeruginosa LPS in combination with indicated concentrations NLF20. […] Clotting times were determined without (control) or with 20 μM of the peptide. Activated partial thromboplastin time (aPTT) was measured by incubating the peptides at the indicated concentrations in citrated human plasma for 1 minute followed by the addition of 100 μl aPTT reagent (aPTT Automate, Diagnostica Stago) for 60 seconds at 37° C. Clotting was initiated by the addition of CaCl2 solution. Results illustrating the prothombin time assay (PT) and thrombin clotting time (TCT) are also presented. (C) Septic shock in C57BL6 mice was induced by intraperitoneal injection of 18 mg/kg E. coli LPS. NLF20 (0.2 or 0.5 mg in 10 mM Tris, pH 7.4) or buffer only was administered. […] (E) Weight was followed for 7 days. […] In separate experiments mice were injected with LPS followed by administration of 0.5 mg of NLF20, or buffer. Animals were sacrificed at 8 h, 20 h, and survivors after 7 days and the number of platelets in blood counted using the VetScanSystem. (F) Administration of NLF20 (0.5 mg) selectively modulates the cytokine response compared to control mice. Cytokines were measured in blood from animals sacrificed at 8 or 20 h after LPS injection. (G) NLF abrogates inflammation in lungs. Lungs were analyzed by light microscopy after staining with hematoxylin-eosin, or analyzed by scanning electron microscopy 20 h after LPS injection i.p., followed by treatment with NLF20 (0.5 mg) or buffer.
(§1) Male C57BL/6 mice (8-10 weeks, 22+/−5 g), were injected intraperitoneally with 18 mg E. coli 0111:B4 LPS (Sigma) per kg of body weight. Thirty minutes after LPS injection, 0.5 mg KYE28, KYE21 or buffer alone was injected intraperitoneally into the mice. Survival and status was followed during seven days. For blood collection and histochemistry, mice were sacrificed 20 h after LPS challenge, and lungs were removed and fixed. These experiments were approved by the Laboratory Animal Ethics Committee of Malmö/Lund.
as §1, with “NLF20” for “KYE28, KYE21”

| Sequence | Antimicrobial activity in RDA (zones of clearance) [1] | Platelet counts (E. coli 0111:B4 LPS) | IFN-γ in blood (E. coli 0111:B4 LPS) | IL-6 in blood (E. coli 0111:B4 LPS) | MCP-1 in blood (E. coli 0111:B4 LPS) | TNF-α in blood (E. coli 0111:B4 LPS) | IL-10 in blood (E. coli 0111:B4 LPS) | Survival (E. coli 0111:B4 LPS) | Weight (E. coli 0111:B4 LPS) |
| --- | --- | --- | --- | --- | --- | --- | --- | --- | --- |
| KYEITTIHNLFRKLTHRLFRRNFGYTLR [KYE28] | activities were similar to those observed for | increased platelet levels after 20 h | significant reductions | significant reductions | significant reductions | significant reductions | an increase in IL-10 was observed after 8 h | dramatic improvement on survival | full recovery of weight |
| KYEITTIHNLFRKLTHRLFRR [KYE21] | activities were similar to those observed for |  | significant reductions | significant reductions | significant reductions | significant reductions | an increase in IL-10 was observed after 8 h | dramatic improvement on survival | full recovery of weight |
| NLFRKLTHRLFRRNFGYTLR [NLF20] | well exceeded those observed for | significantly increased platelets | significant reductions |  |  |  | an increase in IL-10 was observed after 8 h and 20 h | dramatic improvement on survival | full recovery of weight |
